Here are results for 12 compounds from PubChem BioAssay (NCI).

SMILES strings stand for the structures.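 In this assay, cells in 96-well plates receive the compound at five concentrations for 48 hours. Endpoints are linearly interpolated between the surrounding concentrations. At the TGI there is no net growth.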 Bounds are passed on as bounds.

Among the test systems are DU-145 prostate; HCC-2998 colon; HCT-15 colon; KM12 colon; MDA-MB-231 breast; MDA-MB-435; NCI-H23 lung; NCI-H522 lung; SN12C renal; SNB-19 CNS; SNB-75 CNS; SR leukemia.
Holding throughout (experiment): inhibition of tumour cell growth, NCI panel, 48 h

On to `O=c1oc2ccccc2c(O)c1C(c1cc(OCc2ccccc2)cc(OCc2ccccc2)c1)c1c(O)c2ccccc2oc1=O`, for which the TGI in the assay on DU-145 prostate amounted to 24.5 µM; with HCC-2998 colon, 11.9 µM; with HCT-15 colon it was 11.8 µM; in the assay on KM12 colon, 14.7 µM; in the assay with MDA-MB-231 breast, 34.5 µM; with MDA-MB-435 it was 31.3 µM. Also, the TGI with NCI-H23 lung is 23.1 µM; in the assay on NCI-H522 lung, 37.9 µM; with SN12C renal, 21.3 µM; in the assay with SNB-19 CNS, 17.9 µM; in the assay with SNB-75 CNS, 17 µM; in the assay with SR leukemia, 15 µM.

For the compound `CC1(C)CC2(C)CC1CC2O` (stereo not drawn), the TGI in the assay on DU-145 prostate, with HCC-2998 colon, with HCT-15 colon, with KM12 colon, in the assay with MDA-MB-231 breast and in the assay with MDA-MB-435 was > 100 µM in each case. In addition, the TGI in the assay on NCI-H23 lung, in the assay on SN12C renal, with SNB-19 CNS, in the assay on SNB-75 CNS and in the assay on SR leukemia was > 100 µM throughout.

In the case of `c1sc(NC2=NCCO2)c2c1CCCC2`, the TGI in the assay on DU-145 prostate, in the assay on HCC-2998 colon, with HCT-15 colon, in the assay with KM12 colon, in the assay with MDA-MB-231 breast and in the assay on MDA-MB-435 was > 100 µM throughout. The TGI in the assay with NCI-H23 lung, in the assay with NCI-H522 lung, with SNB-19 CNS, with SNB-75 CNS and in the assay with SR leukemia was > 100 µM in each case.

In the case of `O=C(/C(=C(/Br)I)c1ccccc1)c1ccccc1`, the TGI came to 30.9 µM with DU-145 prostate; 30.1 µM in the assay on HCC-2998 colon; 79.3 µM in the assay on HCT-15 colon; 38 µM in the assay on KM12 colon; 60.1 µM with MDA-MB-231 breast; 82.6 µM with MDA-MB-435. The TGI with NCI-H23 lung is > 100 µM; with SN12C renal, 49.9 µM; in the assay with SNB-19 CNS, > 100 µM; in the assay with SNB-75 CNS it was 71 µM; in the assay on SR leukemia it was > 100 µM.

As for `O=c1[nH]cnc2c(C3OC(CO)C(O)C3O)c[nH]c12` (stereo not drawn), the TGI with DU-145 prostate, in the assay on HCC-2998 colon, in the assay on KM12 colon, with MDA-MB-231 breast, with MDA-MB-435 and in the assay with NCI-H23 lung was > 100 µM throughout. Further, the TGI with NCI-H522 lung, in the assay on SN12C renal, in the assay with SNB-19 CNS, in the assay with SNB-75 CNS and with SR leukemia was > 100 µM each time.

Take `Cc1ccc(-c2cc(N)n(-c3nc4c([nH]3)c(=O)n(C)c(=O)n4C)n2)cc1`: the TGI in the assay with DU-145 prostate was 20.4 µM; with HCC-2998 colon it was > 100 µM; with HCT-15 colon it was 18.6 µM; in the assay on KM12 colon, 38.9 µM; with MDA-MB-231 breast, 27.8 µM; with MDA-MB-435 it was > 100 µM. Further, the TGI is 28 µM in the assay on NCI-H23 lung; > 100 µM in the assay with NCI-H522 lung; 27.2 µM in the assay on SN12C renal; > 100 µM in the assay on SNB-19 CNS; > 100 µM in the assay with SR leukemia.

Regarding `O=C(NS(=O)(=O)Nc1ccc(Cl)cc1)OCc1ccc(Cl)cc1Cl`, the TGI in the assay on DU-145 prostate is 46.5 µM; in the assay on HCC-2998 colon it was 30.9 µM; with HCT-15 colon, > 100 µM; in the assay on KM12 colon, 57.2 µM; in the assay on MDA-MB-231 breast, 65.7 µM; in the assay with MDA-MB-435, 50.9 µM. In addition, the TGI in the assay on NCI-H23 lung is 52.3 µM; in the assay with SN12C renal, 63 µM; in the assay with SNB-19 CNS, 48.4 µM; with SNB-75 CNS, > 100 µM; with SR leukemia, > 100 µM.

On to `CC(=O)OCC1OC(N2C(=O)/C(=C\c3ccc(Cl)cc3)C(N)=Nc3ccccc32)C(OC(C)=O)C(OC(C)=O)C1OC(C)=O` (stereo not drawn), for which the TGI with DU-145 prostate is > 100 µM; in the assay with HCC-2998 colon, 36.5 µM; in the assay on HCT-15 colon it was 59.2 µM; in the assay with KM12 colon, 39.5 µM; in the assay on MDA-MB-231 breast it was 49.9 µM; in the assay with MDA-MB-435, 30.7 µM. The TGI is 68.7 µM with NCI-H23 lung; > 100 µM in the assay with SN12C renal; > 100 µM with SNB-19 CNS; 74.4 µM in the assay with SNB-75 CNS; 51.1 µM in the assay with SR leukemia.

`O=c1c2c3ccccc3[nH]c2c2cccc3c2n1CCC3`: the TGI in the assay with DU-145 prostate, in the assay with HCC-2998 colon, in the assay with HCT-15 colon, in the assay with KM12 colon, with MDA-MB-231 breast and in the assay with MDA-MB-435 was > 100 µM in each case. Further, the TGI in the assay with NCI-H23 lung is > 100 µM; with SN12C renal it was > 100 µM; with SNB-19 CNS it was > 100 µM; in the assay with SNB-75 CNS it was > 100 µM; in the assay with SR leukemia it was 67.5 µM.

For the compound `COc1ccc(Nc2c(C#N)c3n(c4ccccc24)c2ccccc2[n+]3C)cc1OC`, the TGI was 18.5 µM in the assay on DU-145 prostate; 13.7 µM in the assay with HCC-2998 colon; 6.5 µM in the assay on HCT-15 colon; 41.7 µM in the assay with KM12 colon; 8.25 µM in the assay on MDA-MB-231 breast; 14.8 µM in the assay with MDA-MB-435. For the same compound, the TGI in the assay with NCI-H23 lung was 19.3 µM; in the assay on NCI-H522 lung it was 16 µM; with SNB-19 CNS, 32.4 µM; in the assay with SNB-75 CNS, 9.52 µM; with SR leukemia, > 100 µM.

With `COc1ccc2c(c1)c1c(n2CCN2CCOCC2)-c2ccccc2CC1`, the TGI in the assay with DU-145 prostate was > 100 µM; in the assay with HCC-2998 colon, 41.2 µM; in the assay on HCT-15 colon, > 100 µM; in the assay on KM12 colon it was > 100 µM; in the assay on MDA-MB-231 breast, > 100 µM; in the assay on MDA-MB-435, > 100 µM. For the same compound, the TGI was > 100 µM with NCI-H23 lung; > 100 µM in the assay on NCI-H522 lung; 69.8 µM in the assay on SN12C renal; > 100 µM with SNB-75 CNS; 43.7 µM in the assay with SR leukemia.

For `CO[C@@H](C(=O)OC1C=CC2(CC1)C(=O)N(C)c1ccccc12)c1ccccc1` (stereo partly drawn), the TGI with DU-145 prostate, with HCC-2998 colon, in the assay with HCT-15 colon, with KM12 colon, in the assay on MDA-MB-231 breast and with MDA-MB-435 was > 100 µM throughout. For the same compound, the TGI in the assay with NCI-H23 lung, in the assay on SN12C renal, with SNB-19 CNS, in the assay with SNB-75 CNS and with SR leukemia was > 100 µM each time.
